Measurements taken from US20100256104A1, “NOVEL AMIDE COMPOUNDS” (ASTRAZENECA R&D, priority 2009, published 2010).

What follows are compounds tested against T1, recombinant human GR (Homo sapiens, UniProt P04150) (assay: Human Glucocorticoid Receptor (GR) Assay, fluorescence polarization competition with GS Red tracer). Details: 2 hours at room temperature, 100% control 10 μM Dexamethasone, XLfit model 205, read-out: Inhibition of GR binding, IC50.
T1 construct: purchased Panvera/Invitrogen P2812 (kit P2893)
T1 sequence (P04150 1-777): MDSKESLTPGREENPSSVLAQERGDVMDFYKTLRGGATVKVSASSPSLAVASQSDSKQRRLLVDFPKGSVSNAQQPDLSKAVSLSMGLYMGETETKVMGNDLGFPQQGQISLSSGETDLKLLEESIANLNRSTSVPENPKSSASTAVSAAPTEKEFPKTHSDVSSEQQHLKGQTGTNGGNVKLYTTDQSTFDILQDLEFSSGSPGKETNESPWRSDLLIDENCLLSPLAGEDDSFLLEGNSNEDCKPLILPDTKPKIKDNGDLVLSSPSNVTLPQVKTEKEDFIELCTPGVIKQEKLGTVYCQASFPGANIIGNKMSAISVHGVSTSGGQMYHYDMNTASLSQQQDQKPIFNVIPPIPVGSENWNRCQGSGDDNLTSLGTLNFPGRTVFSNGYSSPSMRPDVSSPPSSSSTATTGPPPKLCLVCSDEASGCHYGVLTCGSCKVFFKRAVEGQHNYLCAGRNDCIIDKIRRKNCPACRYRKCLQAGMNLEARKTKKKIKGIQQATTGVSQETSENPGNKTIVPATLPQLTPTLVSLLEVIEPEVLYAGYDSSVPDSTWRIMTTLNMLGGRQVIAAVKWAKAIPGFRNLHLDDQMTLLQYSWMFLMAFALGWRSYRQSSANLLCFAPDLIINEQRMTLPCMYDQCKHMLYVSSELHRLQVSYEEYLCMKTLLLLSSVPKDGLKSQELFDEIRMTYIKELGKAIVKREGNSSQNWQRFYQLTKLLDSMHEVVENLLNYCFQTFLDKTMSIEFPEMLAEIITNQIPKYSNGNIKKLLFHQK
Procedure: Human Glucocorticoid Receptor (GR) Assay The assay is based on a commercial kit from Panvera/Invitrogen (Part number P2893). The assay technology is fluorescence polarization. The kit utilises recombinant human GR (Panvera, Part number P2812), a Fluoromone™ labelled tracer (GS Red, Panvera, Part number P2894) and a Stabilizing Peptide 10X (Panvera, Part number P2815). The GR and Stabilizing Peptide reagents are stored at −70° C. while the GS Red is stored at −20° C. Also included in the kit are 1M DTT (Panvera, Part number P2325, stored at −20° C.) and GR Screening buffer 10X (Panvera, Part number P2814, stored at −70° C. initially but once thawed stored at room temperature). Avoid repeated freeze/thaws for all reagents. The GR Screening buffer 10X comprises 100 mM potassium phosphate, 200 mM sodium molybdate, 1 mM EDTA and 20% DMSO. Test compounds (1 μL) and controls (1 μL) in 100% DMSO were added to black polystyrene 384-well plates (Greiner low volume black flat-bottom, part number 784076). 0% control was 100% DMSO and 100% control was 10 μM Dexamethasone. Background solution (8 μL; assay buffer 10X, Stabilizing Peptide, DTT and ice cold MQ water) was added to the background wells. GS Red solution (7 μL; assay buffer 10X, Stabilizing Peptide, DTT, GS Red and ice cold water) was added to all wells except background wells. GR solution (7 μL; assay buffer 10X, Stabilizing Peptide, DTT, GR and ice cold water) was added to all wells. The plate was sealed and incubated in a dark at room temperature for 2 hours. The plate was read in an Analyst plate reader (LJL Biosystems/Molecular Devices Corporation) or other similar plate reader capable of recording fluorescence polarization (excitation wavelength 530 nm, emission wavelength 590 nm and a dichroic mirror at 561 nm).

Row | SMILES | IC50
1 | CCC(=O)O[C@]1(C(=O)SCC#N)CC[C@H]2[C@@H]3CCC4=Cc5c(cnn5-c5cccc(C(=O)N6CCC[C@@H]6C(N)=O)c5)C[C@]4(C)[C@H]3[C@@H](O)C[C@@]21C [Example 14, (1R,3aS,3bS,10aR,10bS,11S,12aS)-7-(3-{[(2R)-2-Carbamoylpyrrolidin-1-yl]carbonyl}phenyl)-1-{[(cyanomethyl)sulfanyl]carbonyl}-11-hydroxy-10a,12a-dimethyl-1,2,3,3a,3b,4,5,7,10,10a,10b,11,12,12a-tetradecahydrocyclopenta[5,6]naphtho[1,2-f]indazol-1-yl propanoate] | 6 nM
2 | COCC(=O)O[C@]1(C(=O)SCF)CC[C@H]2[C@@H]3CCC4=Cc5c(cnn5-c5cccc(C(=O)N6CCC[C@@H]6C(N)=O)c5)C[C@]4(C)[C@@]3(F)[C@@H](O)C[C@@]21C [Example 15, (1R,3aS,3bS,10aS,10bR,11S,12aS)-7-(3-{[(2R)-2-Carbamoylpyrrolidin-1-yl]carbonyl}phenyl)-10b-fluoro-1-{[(fluoromethyl)sulfanyl]carbonyl}-11-hydroxy-10a,12a-dimethyl-1,2,3,3a,3b,4,5,7,10,10a,10b,11,12,12a-tetradecahydrocyclopenta[5,6]naphtho[1,2-f]indazol-1-yl methoxyacetate] | 4.3 nM
3 | COCC(=O)O[C@]1(C(=O)SCF)CC[C@H]2[C@@H]3CCC4=Cc5c(cnn5-c5cccc(C(=O)N6CCC[C@@H]6C(N)=O)c5)C[C@]4(C)[C@H]3[C@@H](O)C[C@@]21C [Example 16, (1R,3aS,3bS,10aR,10bS,11S, 12aS)-7-(3-{[(2R)-2-carba-moylpyrrolidin-1-yl]carbonyl}phenyl)-1-{[(fluoromethyl)sulfanyl]carbonyl}-11-hydroxy-10a,12a-dimethyl-1,2,3,3a,3b,4,5,7,10,10a,10b, 11,12,12a-tetradecahydro-cyclopenta[5,6]naphtho[1,2-f] indazol-1-yl methoxyacetate] | 9 nM
4 | CCC(=O)O[C@]1(C(=O)SCF)CC[C@H]2[C@@H]3C[C@H](C)C4=Cc5c(cnn5-c5cccc(C(=O)N[C@@H](C)C(N)=O)c5)C[C@]4(C)[C@H]3[C@@H](O)C[C@@]21C [Example 23, (1R,3aS,3bS,5S, 10aR,10bS,11S,12aS)-7-(3-{[(1S)-2-amino-1-methyl-2-oxoethyl]carbamoyl}phenyl)-1-{[(fluoromethyl)sulfanyl]carbonyl}-11-hydroxy-5,10a,12a-trimethyl-1,2,3,3a,3b,4,5,7,10, 10a,10b,11,12,12a-tetradecahydrocyclo-penta[5,6]naphtho [1,2-f]indazol-1-yl propanoate] | 4 nM

These reach a lower IC50. Values come first.

Row | IC50 | SMILES
5 | 3 nM | COCC(=O)O[C@]1(C(=O)SCF)CC[C@H]2[C@@H]3CCC4=Cc5c(cnn5-c5cccc(C(=O)NCC(N)=O)c5)C[C@]4(C)[C@@]3(F)[C@@H](O)C[C@@]21C [Example 17, (1R,3aS,3bS,10aS,10bR,11S, 12aS)-7-{3-[(2-amino-2-oxoethyl)carbamoyl]-phenyl}-10b-fluoro-1-{[(fluoromethyl)sulfanyl]carbonyl}-11-hydroxy-10a,12a-dimethyl-1,2,3,3a,3b,4,5,7,10,10a,10b, 11,12,12a-tetradecahydro-cyclopenta[5,6]naphtho[1,2-f] indazol-1-yl methoxyacetate]
6 | 2.8 nM | CCC(=O)O[C@]1(C(=O)SCF)[C@H](C)C[C@H]2[C@@H]3CCC4=Cc5c(cnn5-c5cccc(C(=O)N[C@@H](C)C(N)=O)c5)C[C@]4(C)[C@@]3(F)[C@@H](O)C[C@@]21C [Example 25, (1R,2R,3aS,3bS, 10aS,10bR,11S,12aS)-7-(3-{[(1S)-2-amino-1-methyl-2-oxoethyl]carbamoyl}phenyl)-10b-fluoro-1-{[(fluoromethyl)-sulfanyl]carbonyl}-11-hydroxy-2,10a,12a-trimethyl-1,2,3,3a,3b,4,5,7,10, 10a,10b,11,12,12a-tetradecahydrocyclo-penta[5,6]naphtho [1,2-f]indazol-1-yl propanoate]
7 | 2.5 nM | CCC(=O)O[C@]1(C(=O)SCF)CC[C@H]2[C@@H]3CCC4=Cc5c(cnn5-c5cccc(C(=O)N6CCC[C@@H]6C(N)=O)c5)C[C@]4(C)[C@H]3[C@@H](O)C[C@@]21C [Example 13, (1R,3aS,3bS,10aR,10bS,11S,12aS)-7-(3-{[(2R)-2-Carbamoylpyrrolidin-1-yl]carbonyl}phenyl)-1-{[(fluoromethyl)sulfanyl]carbonyl}-11-hydroxy-10a,12a-dimethyl-1,2,3,3a,3b,4,5,7,10,10a,10b,11,12,12a-tetradecahydrocyclopenta[5,6]naphtho[1,2-f]indazol-1-yl propanoate]
8 | 2.1 nM | CCC(=O)O[C@]1(C(=O)SCF)CC[C@H]2[C@@H]3C[C@H](C)C4=Cc5c(cnn5-c5cccc(C(=O)N[C@H](C)C(N)=O)c5)C[C@]4(C)[C@H]3[C@@H](O)C[C@@]21C [Example 24, (1R,3aS,3bS,5S,10aR, 10bS,11S,12aS)-7-(3-{[(1R)-2-amino-1-methyl-2-oxoethyl]carbamoyl}phenyl)-1-{[(fluoromethyl)sulfanyl]carbonyl}-11-hydroxy-5,10a,12a-trimethyl-1,2,3,3a,3b,4,5,7,10, 10a,10b,11,12,12a-tetradecahydrocyclo-penta[5,6]naphtho [1,2-f]indazol-1-yl propanoate]
9 | 2 nM | CCC(=O)O[C@]1(C(=O)SCF)[C@H](C)C[C@H]2[C@@H]3CCC4=Cc5c(cnn5-c5cccc(C(=O)N[C@H](C)C(N)=O)c5)C[C@]4(C)[C@@]3(F)[C@@H](O)C[C@@]21C [Example 26, (1R,2R,3aS,3bS, 10aS,10bR,11S,12aS)-7-(3-{[(1R)-2-amino-1-methyl-2-oxoethyl]carbamoyl}phenyl)-10b-fluoro-1-{[(fluoromethyl)-sulfanyl]carbonyl}-11-hydroxy-2,10a,12a-trimethyl-1,2,3,3a,3b,4,5,7,10, 10a,10b,11,12,12a-tetradecahydrocyclo-penta[5,6]naphtho [1,2-f]indazol-1-yl propanoate]
10 | 1.9 nM | COCC(=O)O[C@]1(C(=O)SCF)[C@H](C)C[C@H]2[C@@H]3CCC4=Cc5c(cnn5-c5cccc(C(=O)N[C@@H](C)C(N)=O)c5)C[C@]4(C)[C@@]3(F)[C@@H](O)C[C@@]21C [Example 22, (1R,2R,3aS,3bS,10aS,10bR,11S,12aS)-7-(3-{[(1S)-2-Amino-1-methyl-2-oxoethyl]carbamoyl}phenyl)-10b-fluoro-1-{[(fluoromethyl)sulfanyl]carbonyl}-11-hydroxy-2,10a,12a-trimethyl-1,2,3,3a,3b,4,5,7,10,10a,10b,11,12,12a-tetradecahydrocyclopenta[5,6]naphtho[1,2-f]indazol-1-yl methoxyacetate]
11 | 1.4 nM | CCC(=O)O[C@]1(C(=O)SCF)CC[C@H]2[C@@H]3CCC4=Cc5c(cnn5-c5cccc(C(=O)NCC(N)=O)c5)C[C@]4(C)[C@H]3[C@@H](O)C[C@@]21C [Example 18, (1R,3aS,3bS,10aR,10bS,11S, 12aS)-7-{3-[(2-amino-2-oxoethyl)carbamoyl]phenyl}-1-{[(fluoromethyl)sulfanyl]carbonyl}-11-hydroxy-10a, 12a-dimethyl-1,2,3,3a,3b,4,5,7,10,10a,10b,11,12,12a-tetradecahydrocyclopenta[5,6] naphtho[1,2-f]indazol-1-yl propanoate]
